Results reported in US20160298165A1 (priority 2013, published 2016).

Legend:
[1] = test system: M. tuberculosis parental, sdh1 and sdh2 mutant strains
[2] = test system: M. tuberculosis Δsdh1 mutant; format: cell-based; conditions: aerobic, at two and five days
[3] = test system: M. tuberculosis Δsdh1 or Δsdh2 mutants; format: cell-based; conditions: hypoxic conditions
[4] = test system: INH-resistant M. tuberculosis strains (H37Rv inhA S94A, H37Rv PmabAinhA c-15t, H37Rv katG g371del); format: cell-based, Mycobacterium tuberculosis
[5] = test system: M. tuberculosis H37Rv rpoB H445R; format: cell-based, Mycobacterium tuberculosis
[6] = test system: M. tuberculosis H37Rv; format: cell-based, Mycobacterium tuberculosis

For `N#CC(C#N)=NNc1cccc(Cl)c1` [CCCP, carbonyl cyanide 3-chlorophenylhydrazone], the “time after which culture was unable to be rescued” value [1] was 22 to 24 days, the “viable cells at end of experiment” value [1] was “no viable cells remained” and the “parental inoculum remaining viable” value ([1]; Mycobacterium tuberculosis) was 0.1%.

`CC[C@@H](CO)NCCN[C@@H](CC)CO` [EMB, Ethambutol, reference compound] was tested, and the “clearing of the Δsdh1 mutant by single drugs vs parental” value [2] was “this was not true”.

With `CCc1cc(C(N)=S)ccn1` [ETH] the “clearing of the Δsdh1 mutant by single drugs vs parental” value [2] was “cleared more rapidly”.

`NNC(=O)c1ccncc1` [INH, Isoniazid] was tested, and the “clearing of the Δsdh1 mutant by single drugs vs parental” value [2] was “this was not true”, the “killing of Δsdh1 or Δsdh2 mutants compared to the parental strain” value [3] was “no effect” and the “growth of INH-resistant strains” value [4] was “not impaired”.

With `CN[C@@H]1[C@H](O[C@H]2[C@H](O[C@H]3[C@H](O)[C@@H](O)[C@H](N=C(N)N)[C@@H](O)[C@@H]3N=C(N)N)O[C@@H](C)[C@]2(O)C=O)O[C@@H](CO)[C@H](O)[C@H]1O` [STR] the “clearing of the Δsdh1 mutant by single drugs vs parental” value [2] was “this was not true”.

With `N[C@@H](CS)C(=O)O` [cysteine] the “growth of H37Rv rpoB H445R” value [5] was “grew well”, the “Frequency of mutation for INH, Average” value [6] was 7 × 10^−7 and the “Frequency of mutation for RIF” value [6] was 2 × 10^−8. For the same compound, the “Frequency of mutation for RIF, Average” value [6] was 2 × 10^−8, the “decrease in the frequency of spontaneous INH-resistant mutants” value [6] was at most 10 fold and the “decrease in the frequency of spontaneous RIF-resistant mutants” value [6] was 3 fold. The “growth of INH-resistant strains” value [4] was “not impaired”.
